From article PMC10630888, “Nuclear ERK1/2 signaling potentiation enhances neuroprotection and cognition via Importinα1/KPNA2” (EMBO Molecular Medicine, 2023) come the findings set out here.

Usually EC50 stands for the concentration giving half of the maximal effect.

Assay [1] deals with ERK1/2 in HEK293 cells. Nature of the assay: ERK1/2 immunofluorescence (nuclear translocation) in HEK293 cells. The assay is classed as cell-based. The following applies: HEK293, siRNA 200 nM 24 h, then RB5 50 μM 15 min. Here is the method:
For Western blot and immunofluorescence analysis, 0.6 × 10^6 HEK293 cells were seeded in 6‐well plates in the presence of DMEM High Glucose GlutaMax (Thermo Fisher Scientific) containing 10% Foetal Bovine Serum (FBS, Thermo Fisher Scientific) and 100 U/ml penicillin/streptomycin (Thermo Fisher Scientific). For Western blot analysis to assess ERK1/2 and phospho‐ERK1/2 levels, cells were serum starved for 24 h and incubated with RB5 50 μM or FBS 20% for 15 min at 37°C. To assess JNK and phospho‐JNK levels, cells were incubated with RB5 50 μM or anisomycin 5 μM for 30 min at 37°C. For immunofluorescence analysis, cells were serum‐starved for 24 h and incubated with 50 μM RB5 or 20% FBS for 15 min at 37°C.
After rinsing in PBS, cells were fixed in 4% PFA and permeabilized with increasing concentrations of methanol (33, 50, 75, and 95% in PBS, 2 min each at room temperature), followed by 100% methanol for 10 min at −20°C. […] The mean fluorescence intensity in the nucleus was calculated automatically by Fiji‐ImageJ software in 8–10 fields per slide. […]

Assay [2] concerns ERK phosphorylation (pERK). Put plainly: pERK dose-response in acute striatal slices (ex vivo). The assay is classed as cell-based, mouse. The following applies: fresh acute striatal slices from adult mice, RB5 0.5–100 μM, 1 h at 32°C; GraphPad Prism; n = 8–12 slices per group; read-out: EC50 of pERK enhancement (ERK activation). The procedure:
Adult C57Bl/6 mice were decapitated after cervical dislocation and brain slices were freshly prepared as previously described in Orellana et al ([2012]) and Papale et al ([2016]). Briefly, the brains were rapidly removed from the skull, submerged in ice‐cold sucrose‐based dissecting solution, and sliced into 200 μm‐thick slices using a vibratome. […] After a rapid fixation in 4% PFA, slices were rinsed and cryoprotected overnight at 4°C in 30% sucrose solution. On the following day, slices were cut into 18 μm‐thick slices using a cryostat (Leica CM1850), mounted onto SuperFrost Plus slides (Thermo Scientific) and stored at −20°C until processing for immunohistochemistry or immunofluorescence.
Immunohistochemistry was performed as described in Papale et al ([2016]). […]
For ex‐vivo immunohistochemistry experiments, images were acquired from the dorsal striatum using a bright‐field microscope (Macro/Micro Imaging System, Leica) under a 40× magnification. Neuronal quantification was performed with ImageJ software by counting the number of phospho‐ERK positive cells in two sections for each sample in three fields per section. […] The EC50 for pERK was calculated using GraphPad Prism software.

With “GRKKRRQRRRPPQGGGGGEPRRTEGVGPGVPGEVEMVKGQPFDV [RB5, six D-amino acids, acetylated N-terminus]”, in assay [1], the “ERK1/2 nuclear translocation after KPNA2 downregulation” value is “did not further enhance ERK1/2 nuclear translocation”. The half-maximal effective concentration (EC50) in assay [2] turned out to be 3.4 µM.
